Measured values published in patent US12479831B2, “Substituted N(-methyl-D3)pyridazine-3-carboxamide or M-(methyl-D3)-nicotinamide compounds as IL-12, IL-23 and/or IFNα modulators” (BRISTOL-MYERS SQUIBB COMPANY, priority 2020, dated 2025).

Test system: IFNα-Induced STAT Phosphorylation in Human Whole Blood
Experiment: IFNα-Induced STAT Phosphorylation in Human Whole Blood
Type: cell-based
Conditions: 1 h incubation with compound, 1000 U/mL recombinant human IFNα A/D for 15 min, pSTAT5 (pY694) median fluorescence intensity in CD3 positive population, read-out: hWB IC50
Method: IFNα-Induced STAT Phosphorylation in Human Whole Blood
After an hour long incubation with compound, human whole blood (drawn with either EDTA or ACD-A as anti-coagulant) was stimulated with 1000 U/mL recombinant human IFNα A/D (R&D Systems 11200-2) for 15 min. The stimulation was stopped by adding Fix/Lyse buffer (BD 558049). Cells were stained with a CD3 FITC antibody (BD 555916), washed, and permeabilized on ice using Perm III buffer (BD 558050). […] The amount of pSTAT5 expression was quantitated by median fluorescence intensity after gating on the CD3 positive population.
IFNα-Induced STAT Phosphorylation in Human Whole Blood Inhibition Data

Structure (SMILES)	IC50
[2H]C([2H])([2H])NC(=O)c1cnc(Nc2cc(=O)n(C)cn2)cc1Nc1cccc(-c2ncc(F)cn2)c1OC [Example 77, 4-((3-(5-fluoropyrimidin-2-yl)-2-methoxyphenyl)amino)-N-(methyl-d3)-6-((1-methyl-6-oxo-1,6-dihydropyrimidin-4-yl)amino)nicotinamide]	228 nM
[2H]C([2H])([2H])NC(=O)c1nnc(Nc2cc(C(C)(C)O)n(C)n2)cc1Nc1cccc(-c2ncccn2)c1OC [Example 81, 6-((5-(2-hydroxypropan-2-yl)-1-methyl-1H-pyrazol-3-yl)amino)-4-((2-methoxy-3-(pyrimidin-2-yl)phenyl)amino)-N-(methyl-d3)pyridazine-3-carboxamide]	14 nM
[2H]C([2H])([2H])NC(=O)c1nnc(Nc2cc(C(C)(C)O)n(C)n2)cc1Nc1cccc(-c2ncc(F)cn2)c1OC [Example 82, 4-((3-(5-fluoropyrimidin-2-yl)-2-methoxyphenyl)amino)-6-((5-(2-hydroxypropan-2-yl)-1-methyl-1H-pyrazol-3-yl)amino)-N-(methyl-d3)pyridazine-3-carboxamide]	49 nM
[2H]C([2H])([2H])NC(=O)c1nnc(Nc2cc(C(C)(C)O)n(C)n2)cc1Nc1cc(F)cc(-c2ncc(F)cn2)c1OC [Example 83, 4-((5-fluoro-3-(5-fluoropyrimidin-2-yl)-2-methoxyphenyl)amino)-6-((5-(2-hydroxypropan-2-yl)-1-methyl-1H-pyrazol-3-yl)amino)-N-(methyl-d3)pyridazine-3-carboxamide]	77 nM
[2H]C([2H])([2H])NC(=O)c1nnc(Nc2cc(C(=O)N(C)C)n(C)n2)cc1Nc1cccc(-c2ncc(F)cn2)c1OC [Example 85, 6-((5-(dimethylcarbamoyl)-1-methyl-1H-pyrazol-3-yl)amino)-4-((3-(5-fluoropyrimidin-2-yl)-2-methoxyphenyl)amino)-N-(methyl-d3)pyridazine-3-carboxamide]	43 nM
[2H]C([2H])([2H])NC(=O)c1nnc(Nc2cnn(CC)n2)cc1Nc1cccc(-c2ncccn2)c1OC [Example 86, 6-((2-ethyl-2H-1,2,3-triazol-4-yl)amino)-4-((2-methoxy-3-(pyrimidin-2-yl)phenyl)amino)-N-(methyl-d3)pyridazine-3-carboxamide]	96 nM
[2H]C([2H])([2H])NC(=O)c1nnc(Nc2cnn(CC)n2)cc1Nc1cccc(-c2ncc(F)cn2)c1OC [Example 87, 6-((2-ethyl-2H-1,2,3-triazol-4-yl)amino)-4-((3-(5-fluoropyrimidin-2-yl)-2-methoxyphenyl)amino)-N-(methyl-d3)pyridazine-3-carboxamide]	343 nM
[2H]C([2H])([2H])NC(=O)c1nnc(Nc2cn(C)nn2)cc1Nc1cccc(-c2ncc(F)cn2)c1OC [Example 91, 4-((3-(5-fluoropyrimidin-2-yl)-2-methoxyphenyl)amino)-N-(methyl-d3)-6-((1-methyl-1H-1,2,3-triazol-4-yl)amino)pyridazine-3-carboxamide]	167 nM
[2H]C([2H])([2H])NC(=O)c1nnc(Nc2cn(C)nn2)cc1Nc1cc(F)cc(-c2ncccn2)c1OC [Example 93, 4-((5-fluoro-2-methoxy-3-(pyrimidin-2-yl)phenyl)amino)-N-(methyl-d3)-6-((1-methyl-1H-1,2,3-triazol-4-yl)amino)pyridazine-3-carboxamide]	413 nM
[2H]C([2H])([2H])NC(=O)c1nnc(Nc2ccc(C)nn2)cc1Nc1cccc(-c2ncc(F)cn2)c1OC [Example 94, 4-((3-(5-fluoropyrimidin-2-yl)-2-methoxyphenyl)amino)-N-(methyl-d3)-6-((6-methylpyridazin-3-yl)amino)pyridazine-3-carboxamide]	38 nM
[2H]C([2H])([2H])NC(=O)c1nnc(Nc2ccc(OC)nn2)cc1Nc1cccc(-c2ncc(F)cn2)c1OC [Example 97, 4-((3-(5-fluoropyrimidin-2-yl)-2-methoxyphenyl)amino)-6-((6-methoxypyridazin-3-yl)amino)-N-(methyl-d3)pyridazine-3-carboxamide]	80 nM
[2H]C([2H])([2H])NC(=O)c1nnc(Nc2ccc(C(F)(F)F)nn2)cc1Nc1cccc(-c2ncccn2)c1OC [Example 98, 4-((2-methoxy-3-(pyrimidin-2-yl)phenyl)amino)-N-(methyl-d3)-6-((6-(trifluoromethyl)pyridazin-3-yl)amino)pyridazine-3-carboxamide]	112 nM
[2H]C([2H])([2H])NC(=O)c1nnc(Nc2ccc(C(C)(C)O)cn2)cc1Nc1cccc(-c2ncc(F)cn2)c1OC [Example 103, 4-((3-(5-fluoropyrimidin-2-yl)-2-methoxyphenyl)amino)-6-((5-(2-hydroxypropan-2-yl)pyridin-2-yl)amino)-N-(methyl-d3)pyridazine-3-carboxamide]	79 nM

The next lines start with the values.

IC50	Structure (SMILES)
77 nM	[2H]C([2H])([2H])NC(=O)c1cnc(Nc2ccc(C(F)(F)F)nn2)cc1Nc1cccc(-c2ncccn2)c1OC [Example 76, 4-((2-methoxy-3-(pyrimidin-2-yl)phenyl)amino)-N-(methyl-d3)-6-((6-(trifluoromethyl)pyridazin-3-yl)amino)nicotinamide]
192 nM	[2H]C([2H])([2H])NC(=O)c1nnc(Nc2ccn(C3CC3)n2)cc1Nc1cccc(-c2ncc(F)cn2)c1OC [Example 78, 6-((1-cyclopropyl-1H-pyrazol-3-yl)amino)-4-((3-(5-fluoropyrimidin-2-yl)-2-methoxyphenyl)amino)-N-(methyl-d3)pyridazine-3-carboxamide]
80 nM	[2H]C([2H])([2H])NC(=O)c1nnc(Nc2cc(C#N)n(C)n2)cc1Nc1cccc(-c2ncccn2)c1OC [Example 80, 6-((5-cyano-1-methyl-1H-pyrazol-3-yl)amino)-4-((2-methoxy-3-(pyrimidin-2-yl)phenyl)amino)-N-(methyl-d3)pyridazine-3-carboxamide]
19 nM	[2H]C([2H])([2H])NC(=O)c1nnc(Nc2cc(C(C)(C)O)n(C)n2)cc1Nc1cc(F)cc(-c2ncccn2)c1OC [Example 84, 4-((5-fluoro-2-methoxy-3-(pyrimidin-2-yl)phenyl)amino)-6-((5-(2-hydroxypropan-2-yl)-1-methyl-1H-pyrazol-3-yl)amino)-N-(methyl-d3)pyridazine-3-carboxamide]
145 nM	[2H]C([2H])([2H])NC(=O)c1nnc(Nc2cn(CC)nn2)cc1Nc1cccc(-c2ncccn2)c1OC [Example 88, 6-((1-ethyl-1H-1,2,3-triazol-4-yl)amino)-4-((2-methoxy-3-(pyrimidin-2-yl)phenyl)amino)-N-(methyl-d3)pyridazine-3-carboxamide]
250 nM	[2H]C([2H])([2H])NC(=O)c1nnc(Nc2cn(CC)nn2)cc1Nc1cccc(-c2ncc(F)cn2)c1OC [Example 89, 6-((1-ethyl-1H-1,2,3-triazol-4-yl)amino)-4-((3-(5-fluoropyrimidin-2-yl)-2-methoxyphenyl)amino)-N-(methyl-d3)pyridazine-3-carboxamide]
170 nM	[2H]C([2H])([2H])NC(=O)c1nnc(Nc2cnn(C)n2)cc1Nc1cccc(-c2ncc(F)cn2)c1OC [Example 90, 4-((3-(5-fluoropyrimidin-2-yl)-2-methoxyphenyl)amino)-N-(methyl-d3)-6-((2-methyl-2H-1,2,3-triazol-4-yl)amino)pyridazine-3-carboxamide]
136 nM	[2H]C([2H])([2H])NC(=O)c1nnc(Nc2cn(CC)nn2)cc1Nc1cc(F)cc(-c2ncccn2)c1OC [Example 92, 6-((1-ethyl-1H-1,2,3-triazol-4-yl)amino)-4-((5-fluoro-2-methoxy-3-(pyrimidin-2-yl)phenyl)amino)-N-(methyl-d3)pyridazine-3-carboxamide]
182 nM	[2H]C([2H])([2H])NC(=O)c1nnc(Nc2ccc(C#N)nn2)cc1Nc1cccc(-c2ncc(F)cn2)c1OC [Example 95, 6-((6-cyanopyridazin-3-yl)amino)-4-((3-(5-fluoropyrimidin-2-yl)-2-methoxyphenyl)amino)-N-(methyl-d3)pyridazine-3-carboxamide]
96 nM	[2H]C([2H])([2H])NC(=O)c1nnc(Nc2ccc(OC)nn2)cc1Nc1cccc(-c2ncccn2)c1OC [Example 96, 4-((2-methoxy-3-(pyrimidin-2-yl)phenyl)amino)-6-((6-methoxypyridazin-3-yl)amino)-N-(methyl-d3)pyridazine-3-carboxamide]
71 nM	[2H]C([2H])([2H])NC(=O)c1nnc(Nc2ccc(C3CC3)nn2)cc1Nc1cccc(-c2ncc(F)cn2)c1OC [Example 99, 6-((6-cyclopropylpyridazin-3-yl)amino)-4-((3-(5-fluoropyrimidin-2-yl)-2-methoxyphenyl)amino)-N-(methyl-d3)pyridazine-3-carboxamide]
165 nM	[2H]C([2H])([2H])NC(=O)c1nnc(Nc2cc3ccccc3nn2)cc1Nc1cccc(-c2ncc(F)cn2)c1OC [Example 100, 6-(cinnolin-3-ylamino)-4-((3-(5-fluoropyrimidin-2-yl)-2-methoxyphenyl)amino)-N-(methyl-d3)pyridazine-3-carboxamide]
93 nM	[2H]C([2H])([2H])NC(=O)c1nnc(Nc2cnc(C(C)(C)O)cn2)cc1Nc1cccc(-c2ncc(F)cn2)c1OC [Example 101, 4-((3-(5-fluoropyrimidin-2-yl)-2-methoxyphenyl)amino)-6-((5-(2-hydroxypropan-2-yl)pyrazin-2-yl)amino)-N-(methyl-d3)pyridazine-3-carboxamide]
212 nM	[2H]C([2H])([2H])NC(=O)c1nnc(Nc2cc(C(C)(C)O)ccn2)cc1Nc1cccc(-c2ncc(F)cn2)c1OC [Example 102, 4-((3-(5-fluoropyrimidin-2-yl)-2-methoxyphenyl)amino)-6-((4-(2-hydroxypropan-2-yl)pyridin-2-yl)amino)-N-(methyl-d3)pyridazine-3-carboxamide]
